The source of these data is ChEMBL document CHEMBL5365424, “Development of a highly potent and selective degrader of LRRK2” (Bioorg Med Chem Lett, 2023).

SMILES strings stand for the structures. Calls of active or inactive are those of the source. The calls are words filed in the database; no cut-off is given here.

For test [1], the target named is Leucine-rich repeat serine/threonine-protein kinase 2 (Mus musculus) (UniProt Q5S006). Briefly: Induction of LRRK2 degradation in MEF cells at 100 nM measured after 2 hrs by Western blot analysis. In kind it is cell-based.
Leucine-rich repeat serine/threonine-protein kinase 2 (Mus musculus), sequence (Q5S006 whole entry): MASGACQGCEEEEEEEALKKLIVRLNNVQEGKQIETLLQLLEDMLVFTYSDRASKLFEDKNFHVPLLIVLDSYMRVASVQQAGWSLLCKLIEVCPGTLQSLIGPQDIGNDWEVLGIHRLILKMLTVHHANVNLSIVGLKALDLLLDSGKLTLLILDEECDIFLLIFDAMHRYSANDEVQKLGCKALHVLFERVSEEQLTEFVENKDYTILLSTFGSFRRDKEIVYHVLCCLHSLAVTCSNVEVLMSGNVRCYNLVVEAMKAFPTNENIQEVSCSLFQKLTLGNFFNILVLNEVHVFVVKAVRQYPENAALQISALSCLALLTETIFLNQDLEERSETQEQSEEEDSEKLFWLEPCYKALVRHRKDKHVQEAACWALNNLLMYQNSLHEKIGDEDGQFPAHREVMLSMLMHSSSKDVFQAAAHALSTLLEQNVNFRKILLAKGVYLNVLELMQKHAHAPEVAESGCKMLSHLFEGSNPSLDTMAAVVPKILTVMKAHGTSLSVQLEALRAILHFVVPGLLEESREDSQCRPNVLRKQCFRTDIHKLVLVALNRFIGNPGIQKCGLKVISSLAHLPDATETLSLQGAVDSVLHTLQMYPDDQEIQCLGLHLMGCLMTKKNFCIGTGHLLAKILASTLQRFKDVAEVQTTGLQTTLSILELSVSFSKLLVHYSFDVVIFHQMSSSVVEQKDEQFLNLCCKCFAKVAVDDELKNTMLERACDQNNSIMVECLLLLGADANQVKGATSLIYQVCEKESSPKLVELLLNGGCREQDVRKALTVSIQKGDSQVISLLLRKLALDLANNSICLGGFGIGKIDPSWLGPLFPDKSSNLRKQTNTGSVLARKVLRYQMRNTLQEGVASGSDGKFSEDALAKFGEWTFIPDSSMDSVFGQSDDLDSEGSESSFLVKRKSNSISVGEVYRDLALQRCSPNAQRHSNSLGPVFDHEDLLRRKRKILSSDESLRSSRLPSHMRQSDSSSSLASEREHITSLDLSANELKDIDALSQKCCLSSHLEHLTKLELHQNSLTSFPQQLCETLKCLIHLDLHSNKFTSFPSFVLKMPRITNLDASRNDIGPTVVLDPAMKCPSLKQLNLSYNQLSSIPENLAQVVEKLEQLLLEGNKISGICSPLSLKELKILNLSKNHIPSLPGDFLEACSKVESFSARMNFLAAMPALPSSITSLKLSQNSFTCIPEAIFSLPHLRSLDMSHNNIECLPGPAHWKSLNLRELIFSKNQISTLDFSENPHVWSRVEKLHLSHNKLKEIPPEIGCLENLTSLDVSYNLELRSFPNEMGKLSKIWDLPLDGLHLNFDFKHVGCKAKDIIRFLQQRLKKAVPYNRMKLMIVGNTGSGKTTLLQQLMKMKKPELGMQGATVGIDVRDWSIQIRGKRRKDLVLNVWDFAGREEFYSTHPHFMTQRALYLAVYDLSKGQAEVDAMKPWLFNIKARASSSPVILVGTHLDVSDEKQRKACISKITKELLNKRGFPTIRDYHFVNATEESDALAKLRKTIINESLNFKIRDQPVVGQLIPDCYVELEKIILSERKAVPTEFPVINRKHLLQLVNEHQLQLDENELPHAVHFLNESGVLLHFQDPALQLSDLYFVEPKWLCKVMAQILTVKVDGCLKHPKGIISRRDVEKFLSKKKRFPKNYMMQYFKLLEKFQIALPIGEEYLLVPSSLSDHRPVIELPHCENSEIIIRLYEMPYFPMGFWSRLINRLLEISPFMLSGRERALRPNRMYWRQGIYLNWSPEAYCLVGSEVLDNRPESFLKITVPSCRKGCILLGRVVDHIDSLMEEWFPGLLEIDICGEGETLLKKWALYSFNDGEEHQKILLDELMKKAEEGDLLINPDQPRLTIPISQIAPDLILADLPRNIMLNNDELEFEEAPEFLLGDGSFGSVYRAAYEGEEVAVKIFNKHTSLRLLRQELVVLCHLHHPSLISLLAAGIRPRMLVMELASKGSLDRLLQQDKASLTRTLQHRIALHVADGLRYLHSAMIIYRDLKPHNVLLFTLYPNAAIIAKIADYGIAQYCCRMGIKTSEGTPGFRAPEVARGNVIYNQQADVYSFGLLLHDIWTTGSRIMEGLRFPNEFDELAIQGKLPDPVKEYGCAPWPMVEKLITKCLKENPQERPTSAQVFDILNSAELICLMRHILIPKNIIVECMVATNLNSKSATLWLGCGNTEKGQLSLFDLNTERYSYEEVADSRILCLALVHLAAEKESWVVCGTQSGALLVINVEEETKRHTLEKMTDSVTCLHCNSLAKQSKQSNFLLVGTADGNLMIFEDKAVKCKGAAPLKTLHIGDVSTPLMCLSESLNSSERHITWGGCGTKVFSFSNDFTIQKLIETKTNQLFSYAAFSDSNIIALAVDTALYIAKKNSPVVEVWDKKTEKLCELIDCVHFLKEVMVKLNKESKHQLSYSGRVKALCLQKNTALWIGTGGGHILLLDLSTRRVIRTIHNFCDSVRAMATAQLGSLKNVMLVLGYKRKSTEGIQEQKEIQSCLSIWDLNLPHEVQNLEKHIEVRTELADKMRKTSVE
Test [2] has as its target T1, Protein cereblon/Leucine-rich repeat serine/threonine-protein kinase 2 (Mus musculus) (UniProt Q5S006+Q8C7D2). Briefly: Protac activity at CRBN/LRRK2 in MEF cells assessed as induction of LRRK2 degradation at 10 to 1000 nM incubated for 1 to 48 hrs by Western blot analysis. It is filed as cell-based. The note with it: dose 10-1000 nM, time 1-48 hrs.
Test [3] concerns the target T2, Leucine-rich repeat serine/threonine-protein kinase 2 (Homo sapiens, UniProt Q5S007). Briefly: Inhibition of recombinant human GST-tagged LRRK2 (970 to 2527 residues) expressed in insect cells using LRRKtide as substrate measured after 1 hr by Adapta TR-FRET assay. More on the design: species or system Insect cell.
In test [4] the target is Leucine-rich repeat serine/threonine-protein kinase 2 (Homo sapiens, UniProt Q5S007, G2019S). Briefly: Inhibition of recombinant human GST-tagged LRRK2 G2019S mutant (970 to 2527 residues) expressed in insect cells using LRRKtide as substrate measured after 1 hr by Adapta TR-FRET assay. On the set-up: species or system Insect cell. For orientation: TR-FRET usually uses a lanthanide donor and a delayed reading to cut background.

In test [5] the target is Leucine-rich repeat serine/threonine-protein kinase 2 (Mus musculus) (UniProt Q5S006). Briefly: Inhibition of LRRK2 in MEF cells assessed as reduction in pS935 phosphorylation measured after 24 to 48 hrs by Western blot analysis. In kind it is cell-based. The note with it: time 24-48 hrs. For orientation: Immunoblotting shows a protein as a band on a membrane.
In test [6] the target is von Hippel-Lindau disease tumor suppressor/Leucine-rich repeat serine/threonine-protein kinase 2 (Mus musculus) (UniProt Q5S006+P40338). Briefly: Protac activity at VHL/LRRK2 in MEF cells assessed as induction of LRRK2 degradation measured after 48 hrs by Western blot analysis. It is filed as cell-based.
von Hippel-Lindau disease tumor suppressor/Leucine-rich repeat serine/threonine-protein kinase 2 (Mus musculus), sequence (P40338 whole entry, looked up): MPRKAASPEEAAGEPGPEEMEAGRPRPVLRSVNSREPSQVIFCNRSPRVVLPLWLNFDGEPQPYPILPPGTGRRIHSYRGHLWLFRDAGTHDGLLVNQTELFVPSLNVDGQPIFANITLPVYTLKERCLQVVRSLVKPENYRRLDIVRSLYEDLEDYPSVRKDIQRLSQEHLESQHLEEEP
von Hippel-Lindau disease tumor suppressor/Leucine-rich repeat serine/threonine-protein kinase 2 (Mus musculus), sequence (Q5S006 whole entry, looked up): as the sequence (Q5S006 whole entry) above
Test [7] has as its system von Hippel-Lindau disease tumor suppressor/Leucine-rich repeat serine/threonine-protein kinase 2 (Mus musculus), Q5S006+P40338 [R1441C]. Briefly: Protac activity at VHL/LRRK2 R1441C mutant in MEF cells assessed as induction of LRRK2 degradation incubated for 48 hrs by Western blot analysis. In kind it is cell-based.
Test [8] has as its target T1, Protein cereblon/Leucine-rich repeat serine/threonine-protein kinase 2 (Mus musculus). Briefly: Protac activity at CRBN/LRRK2 in MEF cells assessed as induction of LRRK2 degradation at 1000 nM incubated for 48 hrs by Western blot analysis. In kind it is cell-based.
Test [9] concerns the target Protein cereblon/Cyclin-G-associated kinase (Homo sapiens) (UniProt O14976+Q96SW2). Briefly: Protac activity at CRBN/GAK in human MOLT-4 cells assessed as induction of GAK degradation at 1 uM by proteomic analysis. In kind it is cell-based.
Test [10] has as its target Cereblon/Ikaros (Homo sapiens) (UniProt Q96SW2+Q13422). Briefly: Protac activity at CRBN/IKZF1 in human MOLT-4 cells assessed as induction of IKZF1 degradation at 1 uM by proteomic analysis. In kind it is cell-based.
Test [11] addresses Protein cereblon/E3 ubiquitin-protein ligase ZFP91 (Homo sapiens) (UniProt Q96SW2+Q96JP5). Briefly: Protac activity at CRBN/ZFP91 in human MOLT-4 cells assessed as induction of ZFP91 degradation at 1 uM by proteomic analysis. It is filed as cell-based.
Test [12] has as its target T2, Leucine-rich repeat serine/threonine-protein kinase 2. Briefly: Inhibition of human wild-type partial length LRRK2 (H970 to E2527 residues) expressed in mammalian expression system at 1 uM by Kinomescan assay relative to control.
Test [13] concerns the target Protein cereblon/Leucine-rich repeat serine/threonine-protein kinase 2 (Homo sapiens) (UniProt Q5S007+Q96SW2). Briefly: Protac activity at CRBN/LRRK2 in human MOLT-4 cells assessed as induction of LRRK2 degradation at 1 uM by proteomic analysis. In kind it is cell-based.
The target of test [14] is T1, Protein cereblon/Leucine-rich repeat serine/threonine-protein kinase 2 (Mus musculus). Briefly: Protac activity at CRBN/LRRK2 in MEF cells assessed as induction of LRRK2 degradation at 1 uM incubated for 48 hrs by Western blot analysis. In kind it is cell-based.
Test [15] deals with Leucine-rich repeat serine/threonine-protein kinase 2 (Mus musculus) (UniProt Q5S006). Briefly: Inhibition of LRRK2 in MEF cells assessed as reduction in Rab10 phosphorylation at 10 to 1000 nM measured after 24 to 48 hrs by Western blot analysis. The note with it: dose 10-1000 nM, time 24-48 hrs. It is filed as cell-based.
The target in test [16] is T3, Protein cereblon/Cyclin-G-associated kinase (Mus musculus) (UniProt Q8C7D2+Q99KY4). Briefly: Protac activity at CRBN/GAK in MEF cells assessed as induction of GAK degradation at 1 uM measured after 48 hrs by Western blot analysis. It is filed as cell-based.
T3 sequence (Q8C7D2 whole entry, looked up, the tested form may be a part): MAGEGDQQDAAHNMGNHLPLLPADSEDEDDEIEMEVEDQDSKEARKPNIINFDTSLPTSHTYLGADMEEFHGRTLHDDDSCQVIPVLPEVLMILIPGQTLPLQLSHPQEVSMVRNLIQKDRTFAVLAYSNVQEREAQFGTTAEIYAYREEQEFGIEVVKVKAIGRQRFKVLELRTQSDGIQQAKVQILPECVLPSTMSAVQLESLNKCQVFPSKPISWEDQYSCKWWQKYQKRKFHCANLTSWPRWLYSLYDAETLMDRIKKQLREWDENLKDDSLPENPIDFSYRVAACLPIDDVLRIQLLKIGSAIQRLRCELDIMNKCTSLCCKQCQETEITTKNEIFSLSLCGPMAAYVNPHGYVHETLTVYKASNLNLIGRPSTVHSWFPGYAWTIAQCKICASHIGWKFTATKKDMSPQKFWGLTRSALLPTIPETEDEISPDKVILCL
T3 sequence (Q99KY4 whole entry, looked up, the tested form may be a part): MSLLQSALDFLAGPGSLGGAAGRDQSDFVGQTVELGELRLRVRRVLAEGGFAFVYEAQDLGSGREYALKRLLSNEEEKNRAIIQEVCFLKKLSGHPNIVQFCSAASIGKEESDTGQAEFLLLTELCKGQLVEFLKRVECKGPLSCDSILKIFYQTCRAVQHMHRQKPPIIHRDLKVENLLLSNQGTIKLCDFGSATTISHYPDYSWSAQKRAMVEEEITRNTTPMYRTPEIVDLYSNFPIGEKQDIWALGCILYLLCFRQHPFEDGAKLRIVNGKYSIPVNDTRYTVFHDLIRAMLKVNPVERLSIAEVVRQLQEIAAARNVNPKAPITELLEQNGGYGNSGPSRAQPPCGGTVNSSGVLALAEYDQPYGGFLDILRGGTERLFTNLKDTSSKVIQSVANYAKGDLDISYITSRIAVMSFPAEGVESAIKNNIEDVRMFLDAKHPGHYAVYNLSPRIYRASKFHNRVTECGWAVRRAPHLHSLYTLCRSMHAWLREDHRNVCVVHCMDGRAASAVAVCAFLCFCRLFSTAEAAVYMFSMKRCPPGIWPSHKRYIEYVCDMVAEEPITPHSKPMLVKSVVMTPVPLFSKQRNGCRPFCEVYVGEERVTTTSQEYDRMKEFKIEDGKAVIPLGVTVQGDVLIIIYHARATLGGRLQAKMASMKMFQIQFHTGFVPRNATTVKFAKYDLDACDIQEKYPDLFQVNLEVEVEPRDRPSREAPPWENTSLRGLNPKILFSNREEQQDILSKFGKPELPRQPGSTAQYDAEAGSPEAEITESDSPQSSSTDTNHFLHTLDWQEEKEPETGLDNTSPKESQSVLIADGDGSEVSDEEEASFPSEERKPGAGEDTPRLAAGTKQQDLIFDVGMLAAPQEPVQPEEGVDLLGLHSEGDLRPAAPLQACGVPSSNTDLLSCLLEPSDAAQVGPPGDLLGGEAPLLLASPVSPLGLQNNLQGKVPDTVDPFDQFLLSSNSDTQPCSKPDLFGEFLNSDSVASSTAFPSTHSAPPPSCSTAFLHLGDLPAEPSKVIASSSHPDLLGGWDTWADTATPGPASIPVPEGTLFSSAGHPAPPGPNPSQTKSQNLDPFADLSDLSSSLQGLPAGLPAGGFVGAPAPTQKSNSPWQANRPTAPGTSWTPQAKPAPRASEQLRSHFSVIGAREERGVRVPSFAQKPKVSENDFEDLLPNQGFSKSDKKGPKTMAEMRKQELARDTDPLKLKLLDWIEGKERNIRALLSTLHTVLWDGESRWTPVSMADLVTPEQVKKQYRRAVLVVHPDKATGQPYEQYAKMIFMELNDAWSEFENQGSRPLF
Test [17] has as its system Leucine-rich repeat serine/threonine-protein kinase 2 (Homo sapiens), Q5S007 [G2019S]. Briefly: Inhibition of human partial length LRRK2 G2019S mutant (H970 to E2527 residues) expressed in mammalian expression system at 1 uM by Kinomescan assay relative to control.
Test [18] addresses Protein cereblon/Zinc finger protein Aiolos (Homo sapiens) (UniProt Q96SW2+Q9UKT9). Briefly: Protac activity at CRBN/IKZF3 in human MOLT-4 cells assessed as induction of IKZF3 degradation at 1 uM by proteomic analysis. In kind it is cell-based.
Test [19] concerns the target Leucine-rich repeat serine/threonine-protein kinase 2 (Mus musculus) (UniProt Q5S006). Briefly: Inhibition of LRRK2 in MEF cells assessed as reduction in pS935 phosphorylation at 10 to 1000 nM measured after 24 to 48 hrs by Western blot analysis. In kind it is cell-based. The note with it: dose 10-1000 nM, time 24-48 hrs.
Test [20] concerns Protein cereblon/Leucine-rich repeat serine/threonine-protein kinase 2 (Mus musculus), Q5S006+Q8C7D2 [R1441C]. Briefly: Protac activity at CRBN/LRRK2 R1441C mutant in MEF cells assessed as induction of LRRK2 degradation at 1 uM incubated for 48 hrs by Western blot analysis. It is filed as cell-based.
Test [21] concerns the target T1, Protein cereblon/Leucine-rich repeat serine/threonine-protein kinase 2 (Mus musculus). Briefly: Protac activity at CRBN/LRRK2 in MEF cells assessed as induction of LRRK2 degradation at 1 uM incubated for 48 hrs in the presence of MLi-2 by Western blot analysis. In kind it is cell-based.
Test [22] concerns the target T3, Protein cereblon/Cyclin-G-associated kinase (Mus musculus). Briefly: Protac activity at CRBN/GAK in LRRK2 knockout MEF cells assessed as induction of GAK degradation at 1 uM measured after 48 hrs by Western blot analysis. In kind it is cell-based.
For test [23], the system named is Protein cereblon/Leucine-rich repeat serine/threonine-protein kinase 2 (Mus musculus), Q5S006+Q8C7D2 [R1441C]. Briefly: Protac activity at CRBN/LRRK2 R1441C mutant in MEF cells assessed as induction of LRRK2 degradation at 1 uM incubated for 48 hrs in presence of MLi-2 by Western blot analysis. In kind it is cell-based.
Test [24] addresses T1, Protein cereblon/Leucine-rich repeat serine/threonine-protein kinase 2 (Mus musculus). Briefly: Protac activity at CRBN/LRRK2 in MEF cells assessed as induction of LRRK2 degradation at 1 uM incubated for 48 hrs in presence of cereblon degrader ZXH-03-153 by Western blot analysis. In kind it is cell-based.
For test [25], the system named is Protein cereblon/Leucine-rich repeat serine/threonine-protein kinase 2 (Mus musculus), Q5S006+Q8C7D2 [R1441C]. Briefly: Protac activity at CRBN/LRRK2 R1441C mutant in MEF cells assessed as induction of LRRK2 degradation at 1 uM incubated for 48 hrs in presence of cereblon degrader ZXH-03-153 by Western blot analysis. In kind it is cell-based.
In test [26] the target is Leucine-rich repeat serine/threonine-protein kinase 2 (Mus musculus) (UniProt Q5S006). Briefly: Induction of LRRK2 degradation in MEF cells by Western blot analysis. In kind it is cell-based.
Test [27] addresses T3, Protein cereblon/Cyclin-G-associated kinase (Mus musculus). Briefly: Induction of GAK degradation in MEF cells at 1 uM measured after 48 hrs by Western blot analysis. In kind it is cell-based.

T1 sequence (Q5S006 whole entry, looked up, the tested form may be a part): as the sequence (Q5S006 whole entry) above
T1 sequence (Q8C7D2 whole entry, looked up, the tested form may be a part): as the sequence (Q8C7D2 whole entry, looked up, the tested form may be a part) above

For `O=C1CCC(N2C(=O)c3cccc(NCCCCCNc4cccc5c4C(=O)N(C4CCC(=O)NC4=O)C5=O)c3C2=O)C(=O)N1` (stereo not drawn), the outcome in test [1] was Active.
Turning to `Nc1cccc2c1CN(C1CCC(=O)NC1=O)C2=O` (stereo not drawn), the result in test [2] was Active.
What is called IC50 is the midpoint of a concentration-inhibition curve. For the compound `CC1(Oc2ccc3[nH]nc(-c4cc(N5CCN(C(=O)CCOCCNc6cccc7c6C(=O)N(C6CCC(=O)NC6=O)C7=O)CC5)ncn4)c3c2)CC1` (stereo not drawn), the IC50 in test [3] came to 2 nM; in test [4] it was 1 nM. For the same compound, the outcome in test [2] was Active.
What is called inhibition is the drop in the measured response relative to a control, in per cent. Turning to `CC1(Oc2ccc3[nH]nc(-c4cc(N5CCN(C(=O)CCOCCOCCNc6cccc7c6C(=O)N(C6CCCNC6=O)C7=O)CC5)ncn4)c3c2)CC1` (stereo not drawn), the IC50 in [3] and in test [4] was 2 nM each time. In addition, the inhibition entry in [5] was “Active”. Besides, the result in test [6] and in test [7] was inactive.
Regarding `CC1(Oc2ccc3[nH]nc(-c4cc(N5CCN(C(=O)CCOCCOCCNc6cccc7c6C(=O)N(C6CCC(=O)NC6=O)C7=O)CC5)ncn4)c3c2)CC1` (stereo not drawn), the IC50 in test [3] and in [4] was 1 nM in each case. The result in test [8] was Active.
Consider `CC1(Oc2ccc3[nH]nc(-c4cc(N5CCN(C(=O)CCOCCNc6cccc7c6C(=O)N(C6CCC(=O)NC6=O)C7)CC5)ncn4)c3c2)CC1` (stereo not drawn), for which the IC50 in test [3] is 3 nM; in test [4] it was 2 nM. Besides, the outcome in test [2] was Active.
Consider `CC1(Oc2ccc3[nH]nc(-c4cc(N5CCN(C(=O)CCOCCOCCOCCOCCNc6cccc7c6C(=O)N(C6CCC(=O)NC6=O)C7=O)CC5)ncn4)c3c2)CC1` (stereo not drawn), for which the outcome in test [9], in [10], in test [11], in test [13], in test [14] and in test [8] was Active. Moreover, the result in test [16], in [18], in [20] and in test [22] was Active. The inhibition in [12] and in test [17] was greater than 85% each time. Also, the IC50 in test [3] and in [4] was 1 nM each time. Besides, the inhibition result in [15] and in test [19] was “Active” throughout. Moreover, the result in test [21], in [23], in [24] and in test [25] was inactive.
For the compound `CC1(Oc2ccc3[nH]nc(-c4cc(N5CCN(C(=O)CCOCCOCCNc6cccc7c6C(=O)N(C6CCC(=O)NC6=O)C7)CC5)ncn4)c3c2)CC1` (stereo not drawn), the IC50 in test [3] was 3 nM; in [4], 2 nM. Moreover, in test [2], the result was Active.
As for `Cc1ncsc1-c1ccc([C@H](C)NC(=O)[C@@H]2C[C@@H](O)CN2C(=O)[C@@H](NC(=O)CCOCCOCCOCCOCCC(=O)N2CCN(c3cc(-c4n[nH]c5ccc(OC6(C)CC6)cc45)ncn3)CC2)C(C)(C)C)cc1`, the values for the IC50 in test [3] and in [4] were 3 nM and 4 nM, respectively.
In the case of `CC1(Oc2ccc3[nH]nc(-c4cc(N5CCN(C(=O)CCOCCOCCOCCOCCNc6cccc7c6C(=O)N(C6CCC(=O)NC6=O)C7)CC5)ncn4)c3c2)CC1` (stereo not drawn), the IC50 in test [3] and in test [4] was 3 nM in each case. In test [2], the result was Active.
On to `C[C@@H]1CN(c2cc(-c3n[nH]c4ccc(OC5(C)CC5)cc34)ncn2)C[C@H](C)O1`, for which the result in test [26] and in [27] was inactive.
As for `Cc1ncsc1-c1ccc([C@@H](C)NC(=O)[C@H]2C[C@H](O)CN2C(=O)[C@H](NC(=O)CCOCCOCCOCCC(=O)N2CCN(c3cc(-c4n[nH]c5ccc(OC6(C)CC6)cc45)ncn3)CC2)C(C)(C)C)cc1`, the values for the IC50 in [3] and in [4] were 6 nM and 7 nM, respectively.
